Measurements from patent US5798352A, “Antithrombotic amidinotetrahydropyridylalanine derivatives” (Pfizer Inc., priority 1995, dated 1998).
Structures can show the parent of a compound that is named as a salt.

Legend:
thrombin = thrombin (Bos taurus, UniProt P00735); experiment: Chromogenic assay, thrombin inhibition (substrate S2238); assay type: biochemical; details: in vitro; bovine thrombin; Ki calculated from substrate Km and IC50; pH 8.0, 30° C.
Protocol: (§1) The biological activities of the compounds of the present invention were determined by the following test methods.
(§2) The inhibition of thrombin, trypsin, plasmin or factor Xa is measured in 96 well plate chromogenic assays. The percentage inhibition and IC50 are calculated from triplicate samples of an 8 concentration dose-response curve. From the substrate Km and IC50, the Ki for each inhibitor is calculated. All assays are carried out in a total incubation of 200 μl of 50 mM HEPES and 150 mM NaCl at pH 8.0, and all compound dilutions are preincubated with enzyme at room temperature for 15 minutes prior to addition of substrate. After 30 minutes incubation at 30° C., the O.D. is measured at […] in a 96 well plate reader. Thrombin activity is measured using bovine thrombin and S2238 (H-D-Phe-Pip-Arg-pNA), bovine pancreatic trypsin is assayed with S2222 (Benz-Isoleu-Glu-Gly-Arg-pNA), bovine plasma plasmin is assayed with Chromozym PL (Tosyl-Gly-Pro-Lys-pNA)and bovine fac or Xa is assayed in 50 mM Tris, 150 mM NaCl, pH 7.5 buffer with S2222.

trypsin = molecular target: T1, trypsin (Bos taurus, UniProt P00760); experiment: Chromogenic assay, trypsin inhibition (substrate S2222); assay type: biochemical; details: in vitro; bovine pancreatic trypsin; Ki calculated from substrate Km and IC50; pH 8.0, 30° C.
T1 construct: from tissue; host or cells: bovine pancreas
T1 sequence (P00760 24-246): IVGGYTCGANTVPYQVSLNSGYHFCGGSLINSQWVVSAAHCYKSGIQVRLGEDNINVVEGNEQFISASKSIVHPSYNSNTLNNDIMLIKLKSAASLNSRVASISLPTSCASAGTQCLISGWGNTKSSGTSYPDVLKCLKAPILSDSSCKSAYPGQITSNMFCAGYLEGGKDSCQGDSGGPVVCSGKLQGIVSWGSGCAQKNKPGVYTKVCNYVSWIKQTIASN
Protocol: as §1, §2

Ki (thrombin) | Ki (trypsin) | Structure (SMILES)
1.9 nM | 2400 nM | C[C@@H]1CCN(C(=O)[C@H](CC2=CCCN(C(=N)N)C2)NS(=O)(=O)c2ccc3c(c2)CN(C)CC3)[C@H](C(=O)O)C1 [Example 5, 4(R)-Methyl-1-[N-(2-methyl-1,2,3,4-tetrahydroisoquinoline-7-sulphonyl)-3-(1-amidino-1,2,5,6-tetrahydro-3-pyridyl)-(S)-alanyl]piperidine-2(S-carboxylicacid dihydrochloride]
9.9 nM | 690 nM | C[C@H]1CCN(C(=O)[C@H](CC2=CCCN(C(=N)N)C2)NS(=O)(=O)c2ccc3c(c2)CN(C)CC3)[C@@H](C(=O)O)C1 [Example 6, 4(S)-Methyl-1-[N-(2-methyl-1,2,3,4-tetrahydroisoquinoline-7-sulphonyl)-3-(1-amidino-1,2,5,6-tetrahydro-3-pyridyl)-(S)-alanyl]piperidine-2(R)-carboxylic acid dihydrochloride]
